“And” between values parts separate entries of the source, which are not always exact repeats. Equal values may be shown once.
Key:
[1] = Aqueous solubility at RT, Example 2 (water aliquot addition up to 1600 μL); type: physicochemical; details: for dissolution in water after heating: suspension in 1600 μL water heated to 50° C. for 15 min; for dissolution in water: water aliquots up to 1600 μL
Experimental: Aqueous solubility was determined for the anhydrous and hydrated salt forms, as well as for the salts found after the stability study. Aliquots of water were added to the solid salts until dissolution occurred or 1600 μL of water was added. The lactate salt was taken along in the solubility studies as a reference. […] The results (in mg/mL free base dissolved for better comparison between salt forms) of the solubility determination performed in water are reported in Table 9.
Upon completion of the solubility determination, the remaining solids were separated from the liquid phases and allowed to air dry. Dried solids were analyzed by HT-XRPD.

[2] = Crystallinity of salt forms by HT-XRPD; type: physicochemical; details: salt screen solid forms
Experimental: (§1) The precipitated solids were analyzed by high throughput X-ray powder diffractometry (HT XRPD). Liquid phases (both solutions and mother liquors) were evaporated at ambient conditions and the residual solids were analyzed by HT XRPD.
XRPD patterns were obtained using the Ardena T2 high-throughput XRPD set-up. The plates were mounted on a Bruker General Area Detector Diffraction System (GADDS) equipped with a VÅNTEC-500 gas area detector corrected for intensity and geometric variations. The calibration of the measurement accuracy (peaks position) was performed using NIST SRM1976 standard (Corundum).
No background subtraction or curve smoothing was applied to the XRPD patterns.

[3] = Physical stability under Accelerated Aging Conditions (AAC, 40° C./75% RH, 2 days), HT-XRPD; details: for Physically stable after AAC: Example 1; for Physical Stability: AAC 40° C./75% RH, 2 days, re-analyzed by HT-XRPD
[4] = Hygroscopicity by Dynamic Vapor Sorption (DVS); type: physicochemical; details: for classification of hygroscopic behaviour: based on water vapour uptake at 25° C./80% RH
Experimental: The hygroscopic behaviour of the salts was evaluated through Dynamic Vapor Sorption (DVS) measurements with an RH profile 40-95-0-40% at 25° C. and a dm/dt of 0.002. The classification of the hygroscopic behaviour is based on the water vapour uptake at 25° C./80% RH in first adsorption cycle of sorption isotherm.

[5] = Polymorphism: solid forms found in salt screen by HT-XRPD; type: physicochemical; details: Example 1 salt screen in MeOH, DME, THF
Experimental: as §1
The salt screen experiments were carried out in methanol (MeOH), 1,2-dimethoxyethane (DME) and tetrahydrofuran (THF).

physchem = assay: physchem
Experimental: The aqueous solubility of the salts was estimated qualitatively by the solvent aliquot addition method. Aliquots of water up to 500-600 μL were added to approximately 5 mg of salt. The solubility of the free base was also estimated.
The suspensions were let equilibrating at room temperature for 24 h. Afterwards, solids were separated from the liquid phases. The liquid phases were filtered and analyzed by HPLC to determine the solubility. The pH of solutions/mother liquors was also measured.
Suspensions of the two salts were prepared in water with a concentration of 9-10 mg/mL. The mixtures were let equilibrating at RT for 24 h. Afterwards, solids were separated from the liquid phases. The liquid phases were filtered and analyzed by HPLC to determine the solubility. The pH of mother liquors was also measured.

[6] = Kinetic and thermodynamic solubility in water at 37° C. (1 h and 18 h, UPLC)
[7] = Intrinsic dissolution rate (rotating disc, μDiss) in water and FaSSIF; type: physicochemical; details: for IDR (mg/cm^2/min) Individual: single disc
Experimental: Rotating disc intrinsic dissolution determinations were performed with a μDiss apparatus (Pion, USA) equipped with 6 independent glass fiber probes each connected to a diode area. Before the start of the experiment the probes were calibrated using the spectrum of a Mercury 362 nm pen-ray lamp. Discs were prepared in a passivated aluminum dye with a mini-IDR press (Heath Scientific, UK).
Six dilutions of benzamil lactate salt were prepared in the dissolution media in the range from 0 to 0.5 mg/mL, and the solutions were stirred with a cross-shaped magnetic stirrer. These dilutions were used for the calibration curve which is used for the calculation of the amount of benzamil in solution. Moreover, the solutions were used to select the wavelength at which the samples were to be measured and to select the proper path length.
The dyes were placed in their Teflon holder magnet stirrer and placed into 20 mL glass vials. Before to the sample measurement, a blank of each media was taken in the respective channel. The experiment started by the gentle addition of the pre-warmed dissolution media. Vials were incubated at 37° C. under continuous stirring at 100 rpm for a maximum of 4 h. UV absorption was measured with the in-line probes at regular intervals. Upon completion of the experiment the pH of the solution was determined. Concentrations of API in solution were calculated with use of the calibration curve and plotted against time. Dissolution rates were calculated over the linear parts of the curves. All dissolution rate experiments were done in triplicate except for TFA1 which were done in duplicate due to the lack of material.

[8] = Physio-chemical stability study, open container 25° C./60% RH and 40° C./75% RH (UPLC, TGMS, HT-XRPD); type: physicochemical; details: for UPLC 1 week / UPLC 3 weeks / UPLC 3 days: chemical purity
Experimental: Open container at 25° C. and 60% RH • 2. Open container at 40° C. and 75% RH

[9] = Example 2, 40° C./75% RH for 2 days
[10] = water, 37° C., 30 mg/ml suspension
[11] = open container 25° C. and 60% RH
[12] = open container 40° C. and 75% RH

CCC(=O)O.NC(=NC(=O)c1nc(Cl)c(N)nc1N)NCc1ccccc1 [PRO2]
dissolution in water after heating [1]: dissolved
Crystallinity [2]: Moderate

Cc1ccc(S(=O)(=O)O)cc1.NC(=NC(=O)c1nc(Cl)c(N)nc1N)NCc1ccccc1 [TOS1]
Physically stable after AAC ([3]; 40° C./75% RH for 2 days): physically stable and Yes
classification of hygroscopic behaviour [4]: slightly hygroscopic
Polymorphism [5]: Unclear

Cl.NC(=NC(=O)c1nc(Cl)c(N)nc1N)NCc1ccccc1 [Mono-HCl (ref)]
Concentration FB (physchem): 2400 to 3000 µg/mL

N=C(NCc1ccccc1)NC(=O)c1nc(Cl)c(N)nc1N.O=C(O)c1ccccc1 [BNZ1]
Physically stable after AAC ([3]; 40° C./75% RH for 2 days): physically stable and Yes
water vapour uptake ([4]; 25° C./80% RH, first adsorption cycle): 0.1%
classification of hygroscopic behaviour [4]: non hygroscopic
Polymorphism [5]: Yes

NC(=NC(=O)c1nc(Cl)c(N)nc1N)NCc1ccccc1.O=[N+]([O-])O [NIT5]
classification of hygroscopic behaviour [4]: slightly hygroscopic
Polymorphism [5]: Yes

CCCC(=O)O.NC(=NC(=O)c1nc(Cl)c(N)nc1N)NCc1ccccc1 [BUT1]
Physical Stability [3]: Stable
physical stability upon exposure to AAC [3, 9]: physically stable
dissolution in water ([1]; RT): Full dissolution
Crystallinity [2]: Good

Br.N=C(NCc1ccccc1)NC(=O)c1nc(Cl)c(N)nc1N [HBR1]
Physical Stability [3]: Stable
physical stability upon exposure to AAC [3, 9]: physically stable
dissolution in water after heating [1]: dissolved
Crystallinity [2]: Moderate

N=C(NCc1ccccc1)NC(=O)c1nc(Cl)c(N)nc1N.O=C(O)c1ccccc1 [BNZ2]
Physically stable after AAC ([3]; 40° C./75% RH for 2 days): physically stable and Yes
classification of hygroscopic behaviour [4]: slightly hygroscopic
Polymorphism [5]: Yes

NC(=NCc1ccccc1)NC(=O)c1nc(Cl)c(N)nc1N.O=C(O)C(F)(F)F [TFA2]
Physically stable? ([3]; AAC, 2 days at 40° C. and 75% RH, solids from thermocycling): Yes
physical stability upon exposure to AAC ([3]; Example 3 thermocycling solids, 2 days at 40° C. and 75% RH): physically stable
XRPD 1 h Amb. ([6]; residual solid after 1 h in water at 37° C., ambient-dried): TFA2
XRPD 1 h Vac. ([6]; residual solid after 1 h in water at 37° C., vacuum-dried): TFA2
XRPD 18 h Amb. ([6]; residual solid after 18 h in water at 37° C., ambient-dried): TFA2
XRPD 18 h Vac. ([6]; residual solid after 18 h in water at 37° C., vacuum-dried): TFA2
pH after 10 min [6, 10]: 6.0
pH after 1 h [6, 10]: 6.2
Solubility (mg/mL) 1 h ([6]; water, 37° C., 1 h (kinetic), UPLC): 2.6 mg/mL
Solubility (mg/mL) 18 h ([6]; water, 37° C., 18 h (thermodynamic), UPLC): 1.6 mg/mL
IDR (mg/cm^2/min) Average ([7]; FaSSIF, 37° C., 100 rpm): 0.14 ± 0.004 mg/cm^2/min
IDR (mg/cm^2/min) Individual ([7]; FaSSIF, 37° C., 100 rpm): 0.145 mg/cm^2/min and 0.143 mg/cm^2/min and 0.138 mg/cm^2/min
IDR (mg/cm^2/min) Average ([7]; Water, 37° C., 100 rpm): 0.13 ± 0.1 mg/cm^2/min
IDR (mg/cm^2/min) Individual ([7]; Water, 37° C., 100 rpm): 0.116 mg/cm^2/min and 0.143 mg/cm^2/min and 0.130 mg/cm^2/min
state of tablet ([7]; after about 4 h, 37° C.): still not completely dissolved
IDR difference to LAC1 ([7]; in FaSSIF): about 4 fold
Intrinsic Dissolution Rate (IDR) ([7]; water, 37° C., 100 rpm, linear part (LAC1 1 to 36 min; TFA 10-100 min)): 0.13±0.01 mg/cm^2/min
UPLC t0 ([8]; chemical purity at start of stability study): 99.1% and 100%
UPLC 1 week [8, 11]: 99.9% and 100%
UPLC 3 weeks [8, 11]: 100%
UPLC 3 days [8, 11]: 99.9% and 100%
UPLC 1 week [8, 12]: 100%
UPLC 3 weeks [8, 12]: 100%
UPLC 3 days [8, 12]: 99.9% and 100%
physical and chemical stability ([8]; incubation for 3 weeks at 25° C./60% RH and 40° C./75% RH): physically and chemically stable
TGMS 1 week [8, 11]: 0.1% water and <0.1 % water
XRPD 1 week [8, 11]: TFA2 and TFA1
TGMS 3 weeks [8, 11]: <0.1% water
XRPD 3 weeks [8, 11]: TFA2
XRPD 3 days [8, 11]: TFA2 and TFA1
TGMS 1 week [8, 12]: 0.1% water and <0.1 % water
XRPD 1 week [8, 12]: TFA2 and TFA1
TGMS 3 weeks [8, 12]: <0.1% water
XRPD 3 weeks [8, 12]: TFA2
XRPD 3 days [8, 12]: TFA2 and TFA1
XRPD t0 ([8]; start of stability study): TFA2 and TFA1

NC(=NC(=O)c1nc(Cl)c(N)nc1N)NCc1ccccc1.O=C(O)CC(=O)O [MAO1]
Physical Stability [3]: Stable
physical stability upon exposure to AAC [3, 9]: physically stable
dissolution in water after heating [1]: dissolved
Crystallinity [2]: Good

NC(=NC(=O)c1nc(Cl)c(N)nc1N)NCc1ccccc1.O=CO [FOR3]
dissolution in water after heating [1]: dissolved
Crystallinity [2]: Good

CS(=O)(=O)O.NC(=NC(=O)c1nc(Cl)c(N)nc1N)NCc1ccccc1 [MES1]
Physical Stability [3]: Stable
physical stability upon exposure to AAC [3, 9]: physically stable
aqueous solubility compared with starting material (LAC1) ([1]; RT): better solubility value than the starting material (LAC1)
behaviour after full dissolution in water ([1]; RT): precipitation was observed after full dissolution
dissolution in water ([1]; RT): Full dissolution
behaviour in repeated aqueous solubility determination ([1]; aiming for 50 mg/ml, RT): quickly dissolved at RT and after 15 min it crashed out again as a white solid
Crystallinity [2]: Good

NC(=NC(=O)c1nc(Cl)c(N)nc1N)NCc1ccccc1.O=P(O)(O)O [PHO2]
Physically stable after AAC ([3]; 40° C./75% RH for 2 days): physically stable and Yes
classification of hygroscopic behaviour [4]: slightly hygroscopic
Polymorphism [5]: Yes

From patent publication US20250002463A1, “NEW SALT FORMS OF AMILORIDE AND ITS DERIVATIVES FOR PHARMACEUTICAL USE” (PSOMRI Holding AB, priority 2021, published 2025)
